Test [1] deals with Adenosylhomocysteinase (Bos taurus). Nature of the test: Compound is evaluated for the inhibition of bovine liver S-adenosyl-homocysteine hydrolase at a concentration of 2.0 mM.
For the next test, the system named is L929. Nature of the test: Percentage inhibition of plaque formation, after 72 hr of incubation in virus plaque assay, prepared from monolayer cultures of mouse L 929 cells. Type of test: functional. More on the design: concentration or dose not given beside the values.
Test [2] concerns L cells. Nature of the test: Percentage control of incorporation of [3H]thymidine into DNA of uninfected L-cell cultures after 72 hr exposure. Type of test: functional, Mus musculus, L929. More on the design: concentration or dose not given beside the values.
The test system of test [3] is L cells. Kind of test: Percentage control of incorporation of [3H]thymidine into DNA of uninfected L-cell cultures after 36h exposure. Type of test: functional, Mus musculus, L929. On the set-up: concentration or dose not given beside the values.

In the case of `Nc1ncnc2c1nnn2C(CO)CC(CO)CO` (configuration not stated), in test [1], the inhibition came out at 94%. This compound registered an Inhibition in the test with L929 of 11%.

In the case of `CNc1ncnc2c1ncn2C(C=O)CC(C=O)CO` (configuration not stated), the Control in the test on L cells [2] was 106%; in the test on L cells [3] it was 63%. In the test with L929, this compound gave an Inhibition of 60%.

In turn, `CNc1ncnc2c1ncn2C(CO)CC(CO)CO` (configuration not stated) gave an inhibition in test [1] of 82%. In the test on L929, this compound showed an Inhibition of 7%.

In the case of `Nc1ncnc2c1ncn2[C@@H]1C[C@H](CO)[C@@H](O)[C@H]1O` [ARISTEROMYCIN], the Control in the test on L cells [2] came out at 134%; in the test with L cells [3], 81%. The Inhibition with L929 turned out to be 65%.

Regarding `Nc1ncnc2c1ncn2C(C=O)CC(C=O)CO` (configuration not stated), the results for the Control in the test on L cells [2] and with L cells [3] were 130% and 67%, respectively. This compound also showed an Inhibition with L929 of 75%.

In the case of `Nc1ncnc2c1ncn2C(CO)CC(CO)CO` (configuration not stated), the inhibition in test [1] was 98%. In the test with L929, the Inhibition amounted to 13%.

Take `CNc1ncnc2c1ncn2C1CC(CO)C(O)C1O` (configuration not stated): the Control in the test on L cells [2] amounted to 137%; in the test with L cells [3] it was 95%. The compound further returned an Inhibition in the test with L929 of 19%.

As for `Nc1nccc2c1ncn2C(C=O)CC(C=O)CO` (configuration not stated), the Control in the test with L cells [2] worked out at 133%; in the test with L cells [3], 107%. The same compound yielded an Inhibition in the test on L929 of 91%.

As for `Nc1nccc2c1ncn2[C@@H]1C[C@H](CO)[C@@H](O)[C@H]1O` [3-DEAZAARISTEROMYCIN A], the figures for the Control in the test on L cells [2] and with L cells [3] were 246% and 86%, respectively. Further, the Inhibition in the test with L929 came out at 95%.

As to `Nc1ncnc2c1nnn2C1CC(CO)C(O)C1O` (configuration not stated), the Control in the test on L cells [2] was determined as 146%; in the test on L cells [3], 89%. In the test with L929, this compound yielded an Inhibition of 7%.

In test [1], `Nc1nccc2c1ncn2C(CO)CC(CO)CO` (configuration not stated) gave an inhibition of 94%. The Inhibition with L929 was 9%.

On to `Nc1ncnc2c1nnn2C(C=O)CC(C=O)CO` (configuration not stated), for which the results for the Control in the test on L cells [2] and with L cells [3] were 81% and 91%, respectively. In the test with L929, this compound registered an Inhibition of 63%.

By inhibition is commonly meant the percentage by which the read-out fell short of the control. For orientation: Inhibition means the relative decrease from the control value, in per cent.

The values above are taken from ChEMBL document CHEMBL1122975, “Potential inhibitors of S-adenosylmethionine-dependent methyltransferases. 9. 2',3'-Dialdehyde derivatives of carbocyclic purine nucleosides as inhibitors of S-adenosylhomocysteine hydrolase” (J Med Chem, 1985).
